Reference: patent publication US12435061B2 (priority 2020, dated 2025)
pIC50: −log10 of the molar value. ≈ marks a conversion by molar mass, not a printed value. Read-outs that look alike come from different tables or passages of the source.

How the values were obtained:
[1] = biological target: T1, hTRPV3 (Homo sapiens (Human), UniProt Q8NET8); assay: hTRPV3 HAMA IC50 assay (Hamamatsu FDSS6000 calcium flux, TRex-293 cells)
Procedure: IC50s were calculated using CBIS from ChemInnovation (San Diego).

[2] = biological target: T1, hTRPV3; assay: Whole-cell patch clamp, hTRPV3 Phase 1 / Phase 2 currents; assay type: cell-based
In short: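 Currents are activated by 20 μM 2-APB or by perfusate at 28 °C or warmer, in Ringer's solution, and quantified at ±80 mV.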

[3] = Aqueous solubility assay in Normal Ringer Solution; conditions: Normal Ringer Solution, saline or isotonic, kinetic from dmso stock
Procedure: Following vortex and incubation for a sufficient time (e.g. 40 minutes at room temperature), solutions were filtered, quenched with acetonitrile, and analyzed by Liquid Chromotography. Solubility Limits were determined by comparison to a standard curve.

[4] = Metabolic Stability assay, rat liver microsomes; assay type: in vitro ADME; conditions: read-out: LM T1/2 (min) rat
In short: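 Reactions in human or rat liver microsomes at 37 °C were started with an NADPH-regenerating system, using 1 μM compound initially. Samples were taken at 0, 7, 15, 30 and 60 min, quenched in ice-cold acetonitrile/MeOH/H2O, and quantified by HPLC/MS/MS.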

[5] = Phase 1 current, inward, whole-cell patch clamp, read-out: hTRPV3 Patch P1 Inwd
[6] = Phase 1 current, read-out: hTRPV3 (nM) (Phase 1)
[7] = Phase 2 current, inward, whole-cell patch clamp, read-out: hTRPV3 Patch P2 Inwd
[8] = Phase 2 current, read-out: hTRPV3 (nM) (Phase 2)
[9] = Phase 1 current, human TRPV3, read-out: hTRPV3 (nM) Phase 1

T1 sequence (Q8NET8 whole entry): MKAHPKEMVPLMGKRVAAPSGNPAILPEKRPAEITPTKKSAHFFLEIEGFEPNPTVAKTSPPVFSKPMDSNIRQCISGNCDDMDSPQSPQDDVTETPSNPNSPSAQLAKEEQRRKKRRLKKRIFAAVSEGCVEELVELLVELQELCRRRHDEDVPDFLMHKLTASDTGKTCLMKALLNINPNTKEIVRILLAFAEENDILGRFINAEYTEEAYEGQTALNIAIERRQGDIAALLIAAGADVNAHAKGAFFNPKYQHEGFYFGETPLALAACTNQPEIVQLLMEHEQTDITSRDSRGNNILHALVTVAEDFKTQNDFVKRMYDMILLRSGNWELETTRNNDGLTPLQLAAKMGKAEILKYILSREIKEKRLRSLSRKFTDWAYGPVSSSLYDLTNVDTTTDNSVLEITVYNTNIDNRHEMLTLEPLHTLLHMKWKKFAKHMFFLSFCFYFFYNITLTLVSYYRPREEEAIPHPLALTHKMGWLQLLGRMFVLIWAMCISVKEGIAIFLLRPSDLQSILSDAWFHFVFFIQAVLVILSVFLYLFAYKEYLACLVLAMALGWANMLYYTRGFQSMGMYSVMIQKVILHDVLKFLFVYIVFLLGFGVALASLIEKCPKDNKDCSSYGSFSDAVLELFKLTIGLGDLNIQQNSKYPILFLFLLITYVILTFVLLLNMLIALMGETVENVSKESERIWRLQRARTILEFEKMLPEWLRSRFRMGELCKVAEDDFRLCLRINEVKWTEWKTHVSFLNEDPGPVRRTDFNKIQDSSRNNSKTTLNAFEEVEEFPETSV

In the case of `FC(F)(F)c1ccc(O[C@H]2CCN(c3ccccc3-c3ccccc3)C2)nc1` [Compound 1-27, (S)-2-(1-(biphenyl-2-yl)pyrrolidin-3-yloxy)-5-(trifluoromethyl)pyridine], the “hTRPV3 HAMA IC50 (nM) (5 min)” value [1] was “no fit (5 min)”, the pIC50 [2, 5] was less than 6.00 and the IC50 [2, 6] was greater than 3200 nM.
With `FC(F)(F)c1ccc(O[C@@H]2CCN(c3ccccc3-c3ccccc3)C2)nc1` [Compound 1-28, (R)-2-(1-(biphenyl-2-yl)pyrrolidin-3-yloxy)-5-(trifluoromethyl)pyridine] the “hTRPV3 HAMA IC50 (nM) (5 min)” value [1] was “no fit (5 min)”, the pIC50 [2, 5] was less than 6.00 and the IC50 [2, 6] was greater than 3200 nM.
In the case of `N#Cc1cc(-c2ccccc2)ccc1N1CC[C@H](Oc2ccc(C(F)(F)F)cn2)C1` [Compound 1-56, (S)-4-(3-(5-(trifluoromethyl)pyridin-2-yloxy)pyrrolidin-1-yl)biphenyl-3-carbonitrile], the “hTRPV3 HAMA IC50 (nM) (5 min)” value [1] was “R2 fail (5 min)”, the pIC50 [2, 7] was 6.00 to 7.00 and the IC50 [2, 8] was roughly 504 nM.
In the case of `O=[N+]([O-])c1ccccc1N1CC[C@H](Oc2ccc3cc(Cl)ccc3n2)C1` [Compound 1-68, (S)-6-chloro-2-(1-(2-nitrophenyl)pyrrolidin-3-yloxy)quinoline], the “hTRPV3 HAMA IC50 (nM) (5 min)” value [1] was “no fit (5 min)”, the pIC50 [2, 5] was less than 6.00 and the IC50 [2, 6] was greater than 3200 nM. For the same molecule, the pIC50 [2, 7] was less than 6.00 and the IC50 [2, 8] was greater than 3200 nM.
For `Nc1ccccc1N1CC[C@H](Oc2ccc3cc(Cl)ccc3n2)C1` [Compound 1-69, (S)-2-(3-(6-chloroquinolin-2-yloxy)pyrrolidin-1-yl)aniline], the “hTRPV3 HAMA IC50 (nM) (5 min)” value [1] was “no fit (5 in)” and the “hTRPV3 (nM) (Phase 2)” value ([2]; Phase 2 current) was “Agonist (Phase 2)”.
With `O=[N+]([O-])c1cc(-c2ccccc2)ccc1N1CC[C@H](Oc2ccc3cc(Cl)ccc3n2)C1` [Compound 1-70, (S)-6-chloro-2-(1-(3-nitrobiphenyl-4-yl)pyrrolidin-3-yloxy)quinoline] the “hTRPV3 HAMA IC50 (nM) (5 min)” value [1] was “no fit (5 min)”, the pIC50 [2, 5] was less than 6.00 and the IC50 [2, 6] was greater than 3200 nM. It also gave a pIC50 [2, 7] of less than 6.00 and an IC50 [2, 8] greater than 3200 nM.
With `Nc1cc(-c2ccccc2)ccc1N1CC[C@H](Oc2ccc3cc(Cl)ccc3n2)C1` [Compound 1-71, (S)-4-(3-(6-chloroquinolin-2-yloxy)pyrrolidin-1-yl)biphenyl-3-amine] the “hTRPV3 HAMA IC50 (nM) (5 min)” value [1] was “no fit (5 min)”, the IC50 [2, 6] was greater than 3200 nM and the IC50 [2, 8] was greater than 3200 nM. For the same molecule, the IC50 ([2]; hTRPV3 Patch P1 Inwd (nM), Phase 1 current, inward, whole-cell patch clamp) was greater than 1000 nM and the IC50 ([2]; hTRPV3 Patch P2 Inwd (nM), Phase 2 current, inward, whole-cell patch clamp) was greater than 1000 nM.
In the case of `NC(=O)c1c(-c2ccccc2)cccc1N1CC[C@H](Oc2ccc(C(F)(F)F)cn2)C1` [Compound 1-72, (S)-3-(3-(5-(trifluoromethyl)pyridin-2-yloxy)pyrrolidin-1-yl)biphenyl-2-carboxamide], the “hTRPV3 HAMA IC50 (nM) (5 min)” value [1] was “no fit (5 min)”, the “hTRPV3 (nM) (Phase 1)” value ([2]; Phase 1 current) was “Agonist” and the pIC50 [2, 7] was less than 6.00. It also gave an IC50 [2, 8] greater than 3200 nM.
In the case of `CCOC(=O)COc1cc(-c2ccccc2)ccc1N1CC[C@H](Oc2ccc(C(F)(F)F)cn2)C1` [Compound 1-134, (S)-ethyl 2-(4-(3-(5-(trifluoromethyl)pyridin-2-yloxy)pyrrolidin-1-yl)biphenyl-3-yloxy)acetate], the “hTRPV3 HAMA IC50 (nM) (5 min)” value [1] was “no fit (5 min)”, the pIC50 [2, 5] was less than 6.00 and the IC50 [2, 6] was roughly 4820 nM. The pIC50 [2, 7] was less than 6.00 and the IC50 [2, 8] was greater than 3200 nM.
With `OCc1cc(-c2ccccc2C(F)(F)F)ccc1N1CC[C@H](Oc2ccc(C(F)(F)F)cn2)C1` [Compound 1-152, (S)-(2′-(trifluoromethyl)-4-(3-(5-(trifluoromethyl)pyridin-2-yloxy)pyrrolidin-1-yl)biphenyl-3-yl)methanol] the “hTRPV3 HAMA IC50 (nM) (5 min)” value [1] was “no fit (5 min)”, the pIC50 [2, 5] was 7.00 to 8.00 and the IC50 [2, 6] was 20.4 nM.
In the case of `CCc1ccccc1-c1ccc(N2CC[C@H](Oc3ccc(C)cn3)C2)c(CO)n1` [Compound 1-185, (S)-(6-(2-ethylphenyl)-3-(3-(5-methylpyridin-2-yloxy)pyrrolidin-1-yl)pyridin-2-yl)methanol], the “hTRPV3 HAMA IC50 (nM) (5 min)” value [1] was “no fit (5 min) no fit (30 min)”, the “hTRPV3 HAMA IC50 (nM) (30 min)” value [1] was “no fit (5 min) no fit (30 min)” and the pIC50 [2, 5] was less than 6.00. For the same molecule, the IC50 [2, 6] was greater than 3200 nM, the pIC50 [2, 7] was less than 6.00 and the IC50 [2, 8] was 2950 nM.
With `COc1ccccc1-c1ccc(N2CC[C@H](Oc3ncccc3C)C2)c(CO)n1` [Compound 1-186, (S)-(6-(2-methoxyphenyl)-3-(3-(3-methylpyridin-2-yloxy)pyrrolidin-1-yl)pyridin-2-yl)methanol] the “hTRPV3 HAMA IC50 (nM) (5 min)” value [1] was “no fit (5 min) no fit (30 min)”, the “hTRPV3 HAMA IC50 (nM) (30 min)” value [1] was “no fit (5 min) no fit (30 min)” and the pIC50 [2, 5] was less than 6.00. For the same molecule, the IC50 [2, 6] was 1010 nM, the pIC50 [2, 7] was 6.00 to 7.00 and the IC50 [2, 8] was 980 nM.
In the case of `CCc1ccccc1-c1ccc(N2CC[C@H](Oc3ncccc3C)C2)c(CO)n1` [Compound 1-187, (S)-(6-(2-ethylphenyl)-3-(3-(3-methylpyridin-2-yloxy)pyrrolidin-1-yl)pyridin-2-yl)methanol], the “hTRPV3 HAMA IC50 (nM) (5 min)” value [1] was “no fit (5 min) no fit (30 min)”, the “hTRPV3 HAMA IC50 (nM) (30 min)” value [1] was “no fit (5 min) no fit (30 min)” and the pIC50 [2, 5] was 6.00 to 7.00. It also gave an IC50 [2, 6] of 720 nM, a pIC50 [2, 7] of less than 6.00 and an IC50 [2, 8] of roughly 1000 nM.
With `OCc1ncc(-c2ccccc2)cc1N1CC[C@H](Oc2ccc(C(F)(F)F)cn2)C1` [Compound 1-188, (S)-(5-phenyl-3-(3-(5-(trifluoromethyl)pyridin-2-yloxy)pyrrolidin-1-yl)pyridin-2-yl)methanol] the “hTRPV3 HAMA IC50 (nM) (5 min)” value [1] was “no fit (5 min) no fit (30 min)”, the “hTRPV3 HAMA IC50 (nM) (30 min)” value [1] was “no fit (5 min) no fit (30 min)” and the pIC50 [2, 5] was less than 6.00. It also gave an IC50 [2, 6] greater than 3200 nM.
With `Cc1cccnc1O[C@H]1CCN(c2ccc(-c3ccccc3Cl)cc2CCO)C1` [Compound 1-194, (S)-2-(2′-chloro-4-(3-(3-methylpyridin-2-yloxy)pyrrolidin-1-yl)biphenyl-3-yl)ethanol] the “hTRPV3 HAMA IC50 (nM) (5 min)” value [1] was “no fit (5 min)”, the pIC50 [2, 5] was 6.00 to 7.00 and the IC50 [2, 6] was 327 nM.
With `Cc1ccc(O[C@H]2CCN(c3ccc(-c4ccccn4)cc3CO)C2)nc1` [Compound 1-220, (S)-(2-(3-(5-methylpyridin-2-yloxy)pyrrolidin-1-yl)-5-(pyridin-2-yl)phenyl)methanol] the “hTRPV3 HAMA IC50 (nM) (5 min)” value [1] was “no fit (5 min) no fit (30 min)”, the “hTRPV3 HAMA IC50 (nM) (30 min)” value [1] was “no fit (5 min) no fit (30 min)” and the pIC50 [2, 5] was less than 6.00. For the same molecule, the IC50 [2, 6] was greater than 3200 nM.
For `CC(C)c1ccccc1-c1ccc(C2CCN(C(=O)c3ccc(Cl)cn3)C2)c(C(N)=O)c1` (stereo not drawn) [Compound 2-35], the solubility at 40 min [3] was roughly 3.3 µM (≈ 1.48 µg/mL), the half-life at 1 μM [4] was 7.16 min and the IC50 [2, 9] was 61.7 nM. It also gave a pIC50 [2, 5] of 7.00 to 8.00, an IC50 ([2]; Phase 2 current, human TRPV3, read-out: hTRPV3 (nM) Phase 2) of 64.3 nM and a pIC50 [2, 7] of 7.00 to 8.00.
`CCc1ccccc1-c1ccc(C2CCN(C(=O)c3ccc(C)cn3)C2)c(CO)c1` (stereo not drawn) [Compound 2-50, (3-(2′-ethyl-3-(hydroxymethyl)biphenyl-4-yl)pyrrolidin-1-yl)(5-methylpyridin-2-yl) methanone] gave a solubility at 40 min [3] of roughly 3.9 µM (≈ 1.56 µg/mL), a half-life at 1 μM [4] of 8.67 min and an IC50 [2, 9] of 89.8 nM. The pIC50 [2, 5] was 7.00 to 8.00.
Molecule `CCc1ccccc1-c1ccc(C2CCN(C(=O)c3ccc(Cl)cn3)C2)c(CO)c1` (stereo not drawn) [Compound 2-51, (5-chloropyridin-2-yl)(3-(2′-ethyl-3-(hydroxymethyl)biphenyl-4-yl)pyrrolidin-1-yl) methanone] has a solubility at 40 min [3] of roughly 5.3 µM (≈ 2.23 µg/mL), a half-life at 1 μM [4] of 14.4 min and an IC50 [2, 9] of 7.37 nM. It also gave a pIC50 [2, 5] greater than 8.00.
With `CCc1cc(C)ccc1-c1ccc(C2CCN(C(=O)c3ccc(Cl)cn3)C2)c(CO)c1` (stereo not drawn) [Compound 2-66, (5-chloropyridin-2-yl)(3-(2′-ethyl-3-(hydroxymethyl)-4′-methylbiphenyl-4-yl)pyrrolidin-1-yl)methanone] the solubility at 40 min [3] was roughly 1.9 µM (≈ 0.826 µg/mL), the half-life at 1 μM [4] was 24.9 min and the IC50 [2, 9] was 16.5 nM. The pIC50 [2, 5] was 7.00 to 8.00.
Molecule `CCc1c(C)cccc1-c1ccc(C2CCN(C(=O)c3ccc(Cl)cn3)C2)c(CO)c1` (stereo not drawn) [Compound 2-67, (5-chloropyridin-2-yl)(3-(2′-ethyl-3-(hydroxymethyl)-3′-methylbiphenyl-4-yl)pyrrolidin-1-yl)methanone] has a solubility at 40 min [3] of roughly 3.6 µM (≈ 1.57 µg/mL), a half-life at 1 μM [4] of 8.47 min and an IC50 [2, 9] of 0.698 nM. The pIC50 [2, 5] was greater than 8.00.
With `CCc1ccccc1-c1ccc(C2CCN(C(=O)c3ccc(OC)cn3)C2)c(CO)c1` (stereo not drawn) [Compound 2-73, (3-(2′-ethyl-3-(hydroxymethyl)biphenyl-4-yl)pyrrolidin-1-yl)(5-methoxypyridin-2-yl)methanone] the solubility at 40 min [3] was greater than 26.2 µM, the half-life at 1 μM [4] was 9.84 min and the IC50 [2, 9] was 20.5 nM. It also gave a pIC50 [2, 5] of 7.00 to 8.00.
`CC(C)c1ccccc1-c1ccc([C@@H]2CCN(C(=O)c3ccc(F)cn3)C2)c(CO)c1` [Compound 2-77] showed a solubility at 40 min [3] greater than 15.5 µM, a half-life at 1 μM [4] of 9.14 min and an IC50 [2, 9] of 2.27 nM. It also gave a pIC50 [2, 5] greater than 8.00.
Work on `CC(C)c1ccccc1-c1ccc([C@H]2CCN(C(=O)c3ccc(F)cn3)C2)c(CO)c1` [Compound 2-78] yielded a solubility at 40 min [3] greater than 15.4 µM, a half-life at 1 μM [4] of 12.1 min and an IC50 [2, 9] of 234 nM. The pIC50 [2, 5] was 6.00 to 7.00.
With `COc1cnc(C(=O)N2CCC(c3ccc(-c4ccccc4C4CC4)cc3CO)C2)cn1` (stereo not drawn) [Compound 2-107] the solubility at 40 min [3] was 9.25 µM (≈ 3.97 µg/mL), the half-life at 1 μM [4] was 25.7 min and the IC50 [2, 9] was 31.5 nM. For the same molecule, the pIC50 [2, 5] was 7.00 to 8.00.
